From patent publication US20260293900A1 (priority 2023, published 2026)

What was measured:
Phytophthora infestans = assay type: in vivo, Phytophthora infestans (on tomato leaf disks); conditions: 200 ppm; tomato leaf disks, preventative, inoculated 1 day after application; assessed 5-7 days after application
Pythium ultimum = assay: Pythium ultimum/Liquid Culture (Seedling Damping Off); assay type: cell-based; conditions: Globisporangium ultimum, read-out: control of Pythium ultimum compared to untreated control (inhibition of growth)
Plasmopara viticola = assay type: in vivo, Plasmopara viticola (on grape vine leaf disks); conditions: 200 ppm; grape vine leaf disks, preventative, inoculated 1 day after application; assessed 6-8 days after application

SMILES	control of Phytophthora infestans compared to untreated control (percent disease control) (Phytophthora infestans)	inhibition at 20 ppm (Pythium ultimum) [%]	control of Plasmopara viticola compared to untreated control (percent disease control) (Plasmopara viticola)
COC(=O)Nc1ccc(-c2cnn3ccc(C(=O)N(C)c4ccc(F)c(OC)c4)cc23)cn1 [Compound 4, methyl N-[5-[5-[(4-fluoro-3-methoxy-phenyl)-methyl-carbamoyl]pyrazolo[1,5-a]pyridin-3-yl]-2-pyridyl]carbamate]	at least 80%	≥ 80	at least 80%
COC(=O)Nc1ccc(-c2cnn3ccc(C(=O)N(CC#N)c4ccc(F)c(OC)c4)cc23)cn1 [Compound 3, methyl N-[5-[5-[cyanomethyl-(4-fluoro-3-methoxy-phenyl)carbamoyl]pyrazolo[1,5-a]pyridin-3-yl]-2-pyridyl]carbamate]	at least 80%		at least 80%
COCN(C(=O)c1ccn2ncc(-c3ccc(NC(=O)OC)nc3)c2c1)c1ccc(F)c(OC)c1 [Compound 1, methyl N-[5-[5-[(4-fluoro-3-methoxy-phenyl)-(methoxymethyl)carbamoyl]pyrazolo[1,5-a]pyridin-3-yl]-2-pyridyl]carbamate]	at least 80%	≥ 80	at least 80%
COC(=O)Nc1ccc(-c2cnn3ccc(C(=O)N(CC#N)c4ccc(Cl)c(OC)c4)cc23)cn1 [Compound 2, methyl N-[5-[5-[(4-chloro-3-methoxy-phenyl)-(cyanomethyl)carbamoyl]pyrazolo[1,5-a]pyridin-3-yl]-2-pyridyl]carbamate]	at least 80%	≥ 80	
COC(=O)Nc1ccc(-c2cnn3ccc(C(=O)N(C)c4ccc(Cl)cc4)cc23)cc1 [Compound 5, methyl N-[4-[5-[(4-chlorophenyl)-methyl-carbamoyl]pyrazolo[1,5-a]pyridin-3-yl]phenyl]carbamate]		≥ 80	
CC(=O)Nc1ccc(-c2cnn3ccc(C(=O)N(C)c4ccc(Cl)cc4)cc23)cc1 [Compound 6, 3-(4-acetamidophenyl)-N-(4-chlorophenyl)-N-methyl-pyrazolo[1,5-a]pyridine-5-carboxamide]		≥ 80	
